Data from ChEMBL document CHEMBL1770070, “Dibenzylideneacetone analogues as novel Plasmodium falciparum inhibitors” (Bioorg Med Chem Lett, 2011).

How the values were obtained:
Plasmodium falciparum [1] = experiment: Resistance index, ratio for IC50 for chloroquine-resistant Plasmodium falciparum isolate RKL9 to IC50 for chloroquine-sensitive Plasmodium falciparum 3D7; format: functional
[2] = Cytotoxic activity against human HeLa cells after 24 to 48 hrs by MTT assay; format: cell-based; details: read-out: TC50 (the source's name)
Plasmodium falciparum [3] = experiment: Antiplasmodial activity against blood stage of chloroquine-resistant Plasmodium falciparum isolate RKL9 infected in human O positive erythrocytes after 48 hrs by SYBR green I-based fluorescence assay; format: functional, organism-based; details: isolate RKL9, 48 h
[4] = Therapeutic index, TC50 for human HeLa cells to IC50 for chloroquine-resistant Plasmodium falciparum isolate RKL9; format: cell-based; details: read-out: TI
Plasmodium falciparum [5] = experiment: Antiplasmodial activity against blood stage of chloroquine-sensitive Plasmodium falciparum 3D7 infected in human O positive erythrocytes after 48 hrs by SYBR green-I based fluorescence assay; format: functional, organism-based; details: 3D7, 48 h

Row | Structure (SMILES) | IC50 (Plasmodium falciparum [5]) | Ratio IC50 (Plasmodium falciparum [1]) | CC50 [2] | IC50 (Plasmodium falciparum [3]) | selectivity ratio [4]
1 | O=C(/C=C/c1ccc(Cl)cc1Cl)/C=C/c1ccc(Cl)cc1Cl | 9.94 µM | 1.08 | > 269 µM | 10.8 µM | > 25
2 | O=C(/C=C/c1cccc([N+](=O)[O-])c1)/C=C/c1cccc([N+](=O)[O-])c1 | 38.5 µM | – | – | – | –
3 | Fc1ccc(/C=C/C2=NN(c3ccccc3)C(c3ccc(F)cc3)C2)cc1 (configuration not stated) | 9.1 µM | 1.21 | > 277 µM | 11.1 µM | > 25
4 | COc1ccc(/C=C/C2=NN(c3ccccc3)C(c3ccc(OC)cc3)C2)cc1 (configuration not stated) | > 130 µM | – | – | – | –
5 | COc1ccc(/C=C/C(=O)/C=C/c2ccc(OC)c(OC)c2)cc1OC | 1.97 µM | 0.85 | 282 µM | 1.69 µM | 166
6 | O=C(/C=C/c1ccc(F)cc1)/C=C/c1ccc(F)cc1 | 133 µM | – | – | – | –
7 | O=C(/C=C/c1ccccc1Cl)/C=C/c1ccccc1Cl | 6.26 µM | 1 | 231 µM | 6.26 µM | 37
8 | COc1ccccc1/C=C/C(=O)/C=C/c1ccccc1OC | 74.7 µM | – | – | – | –
9 | O=C(/C=C/c1ccc(Cl)cc1)/C=C/c1ccc(Cl)cc1 | 92.4 µM | – | – | – | –
10 | Cc1ccc(/C=C/C(=O)/C=C/c2ccc(C)cc2)cc1 | 114 µM | – | – | – | –

More lines, main results first:

Row | IC50 (Plasmodium falciparum [5]) | Structure (SMILES) | Ratio IC50 (Plasmodium falciparum [1]) | CC50 [2] | IC50 (Plasmodium falciparum [3]) | selectivity ratio [4]
11 | 213 µM | O=C(/C=C/c1ccccc1)/C=C/c1ccccc1 | – | – | – | –
12 | 222 µM | O=C(/C=C/c1ccc(Br)cc1)/C=C/c1ccc(Br)cc1 | – | – | – | –
13 | > 308 µM | C(=C\c1ccccc1)/C1=NN(c2ccccc2)C(c2ccccc2)C1 (configuration not stated) | – | – | – | –
14 | > 142 µM | Cc1ccc(/C=C/C2=NN(c3ccccc3)C(c3ccc(C)cc3)C2)cc1 (configuration not stated) | – | – | – | –
15 | 156 µM | CN(C)c1ccc(/C=C/C(=O)/C=C/c2ccc(N(C)C)cc2)cc1 | – | – | – | –
16 | 255 µM | COc1ccc(/C=C/C(=O)/C=C/c2ccc(OC)cc2)cc1 | – | – | – | –
